These results are taken from patent US11040981B2, “Pyrrolotriazine compounds and methods of inhibiting TAM kinases” (Syros Pharmaceuticals, Inc., priority 2017, dated 2021).

One assay concerns the target T1, FLT3 (Homo sapiens, UniProt P36888).
T1 sequence (P36888 27-993): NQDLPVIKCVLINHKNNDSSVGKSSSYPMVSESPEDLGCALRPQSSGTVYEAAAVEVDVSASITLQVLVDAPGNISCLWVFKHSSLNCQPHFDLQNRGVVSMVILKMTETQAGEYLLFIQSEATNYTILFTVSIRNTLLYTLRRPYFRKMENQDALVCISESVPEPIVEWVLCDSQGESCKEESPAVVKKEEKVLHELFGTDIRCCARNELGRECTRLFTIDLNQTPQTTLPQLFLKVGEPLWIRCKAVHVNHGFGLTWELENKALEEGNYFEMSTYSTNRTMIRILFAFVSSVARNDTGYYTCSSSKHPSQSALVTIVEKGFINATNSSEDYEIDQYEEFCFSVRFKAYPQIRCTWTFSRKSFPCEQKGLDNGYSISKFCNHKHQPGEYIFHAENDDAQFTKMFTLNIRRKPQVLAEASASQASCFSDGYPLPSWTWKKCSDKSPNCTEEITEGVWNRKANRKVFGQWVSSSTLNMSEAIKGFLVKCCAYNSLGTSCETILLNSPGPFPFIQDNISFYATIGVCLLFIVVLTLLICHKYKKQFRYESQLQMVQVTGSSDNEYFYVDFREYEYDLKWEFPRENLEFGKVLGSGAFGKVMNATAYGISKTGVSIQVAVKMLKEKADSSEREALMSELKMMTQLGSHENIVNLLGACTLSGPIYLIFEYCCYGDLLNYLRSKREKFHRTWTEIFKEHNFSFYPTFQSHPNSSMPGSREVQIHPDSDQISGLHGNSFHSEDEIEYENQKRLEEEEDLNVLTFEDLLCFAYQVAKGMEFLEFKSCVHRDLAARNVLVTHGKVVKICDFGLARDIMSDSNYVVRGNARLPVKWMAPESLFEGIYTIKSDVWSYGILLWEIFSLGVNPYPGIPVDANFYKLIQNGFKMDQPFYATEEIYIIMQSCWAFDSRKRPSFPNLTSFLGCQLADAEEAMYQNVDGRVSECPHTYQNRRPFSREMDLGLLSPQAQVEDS
Description: TR-FRET kinase activity assay, FLT3. Type of assay: biochemical. The conditions noted are these: ATP at Km, 60 minutes. In a few lines:
(§1)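 Recombinant human kinases, fluorescent peptide substrate, ATP at Km; 1 h RT, pH 7.5. EDTA-quenched, Eu antibody added, TR-FRET read; IC50 determined.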
(In general: Time-resolved FRET reads energy transfer from a long-lived donor to a nearby acceptor.)

The target of a further assay is T2, TYRO3 (Homo sapiens, UniProt Q06418).
T2 sequence (Q06418 41-890): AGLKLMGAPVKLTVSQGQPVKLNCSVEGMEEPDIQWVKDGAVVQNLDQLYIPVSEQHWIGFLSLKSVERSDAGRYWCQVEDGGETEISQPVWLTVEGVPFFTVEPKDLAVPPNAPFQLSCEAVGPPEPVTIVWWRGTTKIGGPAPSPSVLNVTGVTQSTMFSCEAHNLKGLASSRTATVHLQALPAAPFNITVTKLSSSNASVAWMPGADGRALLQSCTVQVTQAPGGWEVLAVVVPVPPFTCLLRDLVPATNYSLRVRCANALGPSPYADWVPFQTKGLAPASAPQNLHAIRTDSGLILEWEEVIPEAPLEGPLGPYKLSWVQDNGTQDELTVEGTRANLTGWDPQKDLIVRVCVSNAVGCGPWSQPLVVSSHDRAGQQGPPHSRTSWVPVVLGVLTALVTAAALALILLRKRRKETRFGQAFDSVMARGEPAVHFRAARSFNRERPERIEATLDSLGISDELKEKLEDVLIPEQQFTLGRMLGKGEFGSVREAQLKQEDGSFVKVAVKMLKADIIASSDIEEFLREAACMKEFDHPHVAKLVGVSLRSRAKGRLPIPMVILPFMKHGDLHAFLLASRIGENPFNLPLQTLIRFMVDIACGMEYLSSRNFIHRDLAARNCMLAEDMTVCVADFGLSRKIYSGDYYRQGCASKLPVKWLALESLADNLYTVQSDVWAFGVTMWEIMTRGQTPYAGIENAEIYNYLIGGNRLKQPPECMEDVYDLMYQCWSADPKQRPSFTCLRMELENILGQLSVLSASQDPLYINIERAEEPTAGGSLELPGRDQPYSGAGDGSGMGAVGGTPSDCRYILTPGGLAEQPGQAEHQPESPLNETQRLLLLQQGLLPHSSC
Description: TR-FRET kinase activity assay, TYRO3. Type of assay: biochemical. The conditions noted are these: ATP at Km, 60 minutes. In a few lines:
as §1

By IC50 is commonly meant the concentration at which inhibition is half-maximal. Lower therefore signals greater potency.

`C[C@H](Nc1ncc2c(-c3cnn(C(C)(C)C(=O)N4CCOCC4)c3)cc([C@H]3CC[C@H](O)CC3)n2n1)C(F)(F)F` [Compound 537]: the IC50 against FLT3 is 1000 to 10000 nM; at TYRO3 it was no more than 100 nM.

Take `COC[C@H](C)Nc1ncc2c(-c3ccc(C(=O)O)cc3)cc([C@H]3CC[C@H](O)CC3)n2n1` [Compound 139]: the IC50 against FLT3 was 1000 to 10000 nM; at TYRO3 it was no more than 100 nM.

Consider `COC[C@H](C)Nc1ncc2c(-c3cnn(C(C)(C)C(=O)N4CC[C@H](O)C4)c3)cc([C@H]3CC[C@H](O)CC3)n2n1` [Compound 554], for which the IC50 on FLT3 was 1000 to 10000 nM; against TYRO3, no more than 100 nM.

In the case of `COCC(C)Nc1ncc2c(-c3ccnc(N4CCOC(C(C)(C)O)C4)c3)cc(C3CCC(O)CC3)n2n1` (stereo not shown) [Compound 559], the IC50 at FLT3 is 100 to 1000 nM; against TYRO3, no more than 100 nM.

With `COC[C@H](C)Nc1ncc2c(-c3ccc(CN4CCN(C)CC4)nc3)cc([C@H]3CC[C@H](O)CC3)n2n1` [Compound 565], the results for the IC50 at FLT3 and against TYRO3 were 100 to 1000 nM and no more than 100 nM, respectively.

Regarding `COCC(C)Nc1ncc2c(-c3ccc4[nH]ccc4c3)cc(C3CCC(O)CC3)n2n1` (stereo not shown) [Compound 539], the IC50 is 1000 to 10000 nM against FLT3 and no more than 100 nM against TYRO3.

Regarding `COC[C@H](C)Nc1ncc2c(-c3cnn(C(C)(C)C(=O)N4CCOC(C(C)(C)O)C4)c3)cc([C@H]3CC[C@H](O)CC3)n2n1` (stereo partly shown) [Compound 586], the IC50 on FLT3 was 1000 to 10000 nM; against TYRO3, no more than 100 nM.

With `COC[C@H](C)Nc1ncc2c(-c3cnn(C4COC4)c3)cc(-c3cccc(O)c3)n2n1` [Compound 511], the results for the IC50 against FLT3 and on TYRO3 were 100 to 1000 nM and no more than 100 nM, respectively.

In the case of `COC[C@H](C)Nc1ncc2c(-c3cnn(C(C)(C)C(=O)N4CCOCC4)c3)cc([C@H]3CC[C@@](C)(O)CC3)n2n1` [Compound 561], the results for the IC50 at FLT3 and at TYRO3 were 100 to 1000 nM and no more than 100 nM, respectively.

Consider `COC[C@H](C)Nc1ncc2c(-c3ccnc(C(F)(F)F)c3)cc([C@H]3CC[C@H](O)CC3)n2n1` [Compound 584], for which the IC50 was 1000 to 10000 nM at FLT3 and no more than 100 nM at TYRO3.

In the case of `COC[C@H](C)Nc1ncc2c(-c3cnn(C(C)(C)C(=O)N4CC[C@@H](O)C4)c3)cc([C@H]3CC[C@H](O)CC3)n2n1` [Compound 555], the values for the half-inhibitory concentration (IC50) at FLT3 and against TYRO3 were 1000 to 10000 nM and no more than 100 nM, respectively.

Consider `COC[C@H](C)Nc1ncc2c(-c3cnn(C(C)(C)C(=O)N4CCOC(C(C)(C)O)C4)c3)cc([C@H]3CC[C@H](O)CC3)n2n1` (stereo partly shown) [Compound 556], for which the figures for the IC50 against FLT3 and on TYRO3 were 1000 to 10000 nM and no more than 100 nM, respectively.

Take `COCC(C)Nc1ncc2c(-c3ccc(CN4CCCC4)cc3)cc(C3CCC(O)CC3)n2n1` (stereo not shown) [Compound 142]: the 50% inhibitory concentration (IC50) on FLT3 is 100 to 1000 nM; on TYRO3 it was no more than 100 nM.

Regarding `CC(Nc1ncc2c(-c3cnn(C4COC4)c3)cc(C3CCC(O)CC3)n2n1)c1ccccn1` (stereo not shown) [Compound 544], the figures for the IC50 at FLT3 and on TYRO3 were 1000 to 10000 nM and no more than 100 nM, respectively.

`COC[C@H](C)Nc1ncc2c(-c3cncc([S@@](C)(=N)=O)c3)cc([C@H]3CC[C@H](O)CC3)n2n1` [Compound 573]: the IC50 against FLT3 was greater than 10000 nM; against TYRO3, no more than 100 nM.

Consider `COC[C@H](C)Nc1ncc2c(-c3ccc([S@@](C)(=N)=O)nc3)cc([C@H]3CC[C@H](O)CC3)n2n1` [Compound 533], for which the IC50 was 1000 to 10000 nM on FLT3 and no more than 100 nM at TYRO3.

Turning to `COCC(C)Nc1ncc2c(-c3ccc4ncoc4c3)cc(C3CCC(O)CC3)n2n1` (stereo not shown) [Compound 552], the IC50 on FLT3 is 100 to 1000 nM; on TYRO3, no more than 100 nM.

`COC[C@H](C)Nc1ncc2c(-c3cnn(C4COC4)c3)cc(C3CCSCC3)n2n1` [Compound 522]: the values for the IC50 at FLT3 and on TYRO3 were 100 to 1000 nM and no more than 100 nM, respectively.

For the compound `C[C@@H](CC(F)(F)F)Nc1ncc2c(-c3ccc([S@@](C)(=N)=O)nc3)cc([C@H]3CC[C@H](O)CC3)n2n1` [Compound 541], the half-inhibitory concentration (IC50) on FLT3 and on TYRO3 was no more than 100 nM each time.

Take `CC(Cc1ccc(F)cc1)Nc1ncc2c(-c3cnn(C4COC4)c3)cc(C3CCC(O)CC3)n2n1` (racemic) [Compound 535]: the IC50 at FLT3 and against TYRO3 was no more than 100 nM throughout.

For `COC[C@H](C)Nc1ncc2c(-c3cnn(C4COC4)c3)cc([C@@H]3CC[C@H](O)[C@H](C)C3)n2n1` [Compound 587], the IC50 against FLT3 is 100 to 1000 nM; on TYRO3, no more than 100 nM.

Take `COC[C@H](C)Nc1ncc2c(-c3ccnc(N4CCOCC4)c3)cc([C@H]3CC[C@@H](O)CC3)n2n1` [Compound 546]: the IC50 against FLT3 is 100 to 1000 nM; against TYRO3 it was no more than 100 nM.

Turning to `COC[C@H](C)Nc1ncc2c(-c3ccnc(C4COC4)c3)cc([C@H]3CC[C@H](O)CC3)n2n1` [Compound 566], the IC50 was 100 to 1000 nM against FLT3 and no more than 100 nM at TYRO3.

`COC[C@H](C)Nc1ncc2c(-c3cnn(C(C)(C)C(=O)N4CCOCC4)c3)cc([C@@H]3CCc4cn[nH]c4C3)n2n1` [Compound 594]: the IC50 was 1000 to 10000 nM at FLT3 and no more than 100 nM at TYRO3.

`C[C@@H](CC(F)(F)F)Nc1ncc2c(-c3ccc([S@](C)(=N)=O)nc3)cc([C@H]3CC[C@H](O)CC3)n2n1` [Compound 540]: the IC50 at FLT3 and at TYRO3 was no more than 100 nM throughout.

Take `COC[C@H](C)Nc1ncc2c(-c3cnn(C(C)(C)C(=O)N4CCCC5(COC5)C4)c3)cc([C@H]3CC[C@H](O)CC3)n2n1` [Compound 516]: the figures for the IC50 on FLT3 and at TYRO3 were 1000 to 10000 nM and no more than 100 nM, respectively.

As to `CC(C)(O)C1CN(c2cc(-c3cc([C@H]4CC[C@H](O)CC4)n4nc(NCCOC(F)F)ncc34)ccn2)CCO1` (stereo partly shown) [Compound 557], the IC50 was 100 to 1000 nM at FLT3 and no more than 100 nM on TYRO3.

Turning to `COC[C@H](C)Nc1ncc2c(-c3cnn(C(C)(C)C(=O)N4CCOCC4)c3)cc([C@H]3CC[C@](C)(O)CC3)n2n1` [Compound 560], the IC50 against FLT3 is 100 to 1000 nM; at TYRO3 it was no more than 100 nM.

With `COC[C@H](C)Nc1ncc2c(-c3cnn(C(C)(C)C(=O)N4CCOCC4)c3)cc([C@H]3CC[C@@H](O)CC3)n2n1` [Compound 547], the IC50 is 100 to 1000 nM against FLT3 and no more than 100 nM on TYRO3.

Take `COC[C@H](C)Nc1ncc2c(-c3ccnc(N4CCOCC4)c3)cc([C@H]3CC[C@](C)(O)CC3)n2n1` [Compound 549]: the IC50 against FLT3 is 100 to 1000 nM; against TYRO3 it was no more than 100 nM.

Take `C[C@@H](CC(F)(F)F)Nc1ncc2c(-c3cncc([S@](C)(=N)=O)c3)cc([C@H]3CC[C@H](O)CC3)n2n1` [Compound 582]: the figures for the IC50 on FLT3 and at TYRO3 were 1000 to 10000 nM and no more than 100 nM, respectively.

Take `C[C@H](Nc1ncc2c(-c3cnn(C4COC4)c3)cc([C@H]3CC[C@H](O)CC3)n2n1)C(F)(F)F` [Compound 510]: the results for the IC50 at FLT3 and on TYRO3 were 1000 to 10000 nM and no more than 100 nM, respectively.

For the compound `COCC(C)Nc1ncc2c(-c3ccc4cc[nH]c4c3)cc(C3CCC(O)CC3)n2n1` (stereo not shown) [Compound 538], the results for the IC50 on FLT3 and against TYRO3 were 1000 to 10000 nM and no more than 100 nM, respectively.

As to `COC[C@H](C)Nc1ncc2c(-c3ccnc([S@](C)(=N)=O)c3)cc([C@H]3CC[C@H](O)CC3)n2n1` [Compound 575], the results for the IC50 at FLT3 and against TYRO3 were 1000 to 10000 nM and no more than 100 nM, respectively.

In the case of `COC[C@H](C)Nc1ncc2c(-c3cnn(C4COC4)c3)cc(C3CCC(=O)NC3)n2n1` (stereo partly shown) [Compound 526], the half-maximal inhibitory concentration (IC50) on FLT3 was 1000 to 10000 nM; against TYRO3, no more than 100 nM.
